# Assay results taken from patent publication US20200345002A1, “COMPOSITIONS AND METHODS FOR INDUCING CROP CHANGES BY LEVERAGING THE EFFECTS OF AN APPLIED AGRICULTURAL CHEMICAL” (ADVANCED BIOLOGICAL MARKETING, INC., priority 2017, published 2020).
# Test system: weedy target
# Assay: Greenhouse Paraquat spray on weedy target
# Assay type: in vivo
# Conditions: 24 hours post spray
# Excerpt: Turning to FIG. 8, recovery of replicates of plants using compositions of the present invention is shown. The control is in the upper left and the remaining plants are colonized with single Trichoderma strains, with 3 replicate plants per strain.
structure (smiles),measurement,value
"C[n+]1ccc(-c2cc[n+](C)cc2)cc1.[Cl-].[Cl-] [Paraquat, N,N′-dimethyl-4,4′-bipyridinium dichloride]",killing effect of the Paraquat application,complete killing effect
